# Test results from ChEMBL document CHEMBL2346539, “Effects of geraniin on osteoclastic bone resorption and matrix metalloproteinase-9 expression” (2013).
# Active and inactive are the calls of the source. The calls are words filed in the database; no cut-off is given here.
# Assays:
# [1] = Reduction of MMP9 protein expression in rat osteoclasts assessed as reduction in integral optical density by immunocytochemistry analysis; assay type: functional, cell-based; conditions: Osteoclast
# [2] = Reduction of MMP9 protein expression in rat osteoclasts assessed as reduction in mean optical density by immunocytochemistry analysis; assay type: functional, cell-based; conditions: Osteoclast
# [3] = Reduction of MMP9 mRNA expression in rat osteoclasts assessed as reduction in integral optical density at 10^-8 mol/L by in situ hybridization assay; assay type: functional, cell-based; conditions: Osteoclast
# [4] = Reduction of MMP9 mRNA expression in rat osteoclasts assessed as reduction in mean optical density at 10^-8 mol/L by in situ hybridization assay; assay type: functional, cell-based; conditions: Osteoclast
# Osteoclast [5] = test: Inhibition of rat osteoclasts-induced resorption in bovine bone co-cultured for 72 hrs using toluidine blue staining by SEM analysis; assay type: functional, cell-based
# Osteoclast [6] = test: Reduction in number of resorption pits in rat osteoclasts-stimulated bovine bone at 10^-8 mol/L co-cultured for 72 hrs using toluidine blue staining by SEM analysis; assay type: functional, cell-based
# Osteoclast [7] = test: Inhibition of rat osteoclasts-induced resorption in bovine bone at 10^-8 mol/L co-cultured for 72 hrs using toluidine blue staining by SEM analysis; assay type: functional, cell-based
# Bone [8] = test: Inhibition of osteoclastogenesis in Sprague-Dawley rat bone assessed as inhibition of fusion index at 10^-10 mol/L after 72 hrs by microscopy; assay type: functional; conditions: Bone element
# Bone [9] = test: Inhibition of osteoclastogenesis in Sprague-Dawley rat bone assessed as inhibition of fusion index at 10^-11 mol/L after 72 hrs by microscopy; assay type: functional; conditions: Bone element
# Bone [10] = test: Inhibition of osteoclastogenesis in Sprague-Dawley rat bone assessed as inhibition of fusion index at 10^-9 mol/L after 72 hrs by microscopy; assay type: functional; conditions: Bone element
# Bone [11] = test: Reduction in number of pre-osteoclasts in Sprague-Dawley rat bone at 10^-8 mol/L after 72 hrs by microscopy; assay type: functional, tissue-based; conditions: Bone element
# Bone [12] = test: Inhibition of osteoclastogenesis in Sprague-Dawley rat bone assessed as inhibition of fusion index at 10^-8 mol/L after 72 hrs by microscopy; assay type: functional; conditions: Bone element
# Bone [13] = test: Inhibition of osteoclastogenesis in Sprague-Dawley rat bone assessed as decrease in TRAP-positive multi-nucleated cells at 10^-8 mol/L after 72 hrs by microscopy; assay type: functional, tissue-based; conditions: Bone element
# Bone [14] = test: Inhibition of osteoclastogenesis in Sprague-Dawley rat bone assessed as decrease in TRAP-positive multi-nucleated cells after 72 hrs by microscopy; assay type: functional, tissue-based; conditions: Bone element
smiles,measurement,setting,value
O=C1O[C@H]2[C@@H]3OC(=O)c4cc(O)c(O)c(O)c4-c4c(cc(O)c(O)c4O)C(=O)OC[C@H]2O[C@@H](OC(=O)c2cc(O)c(O)c(O)c2)[C@@H]3OC(=O)c2cc(O)c(O)c3c2[C@@H]2C1=CC(=O)[C@](O)(O3)C2(O)O [GERANIIN],Activity,[1],Dose-dependent effect
same,Activity,[2],Dose-dependent effect
same,Activity,[3],Active
same,Activity,[4],Active
same,inhibition,Osteoclast [5],Dose-dependent effect
same,Activity,Osteoclast [6],Active
same,inhibition,Osteoclast [7],Active
same,inhibition at 0.0001 µM,Bone [8],9.31%
same,inhibition at 10 pM,Bone [9],3.05%
same,inhibition at 0.001 µM,Bone [10],24.2%
same,Activity,Bone [11],Active
same,inhibition at 0.01 µM,Bone [12],46%
same,inhibition,Bone [13],Active
same,inhibition,Bone [14],Dose-dependent effect
